ChEMBL document CHEMBL1909046, “DrugMatrix in vitro pharmacology data”

Legend:
[1] = DRUGMATRIX: beta-Lactamase enzyme inhibition (substrate: Nitrocefin); design: species or system Bacillus cereus; conditions: Not Active = under 50% inhibition at 10 µM
[2] = target: Vascular endothelial growth factor receptor 1 (Homo sapiens, UniProt P17948); assay type: cell-based; conditions: huvec; note: in other assays of this panel Not Active means under 50% inhibition at 10 µM
[3] = target: T1, Vasoactive intestinal polypeptide receptor 1 (Homo sapiens, UniProt P32241); assay type: cell membranes, Membrane; conditions: ht-29; note: in other assays of this panel Not Active means under 50% inhibition at 10 µM
T1 sequence (P32241 whole entry): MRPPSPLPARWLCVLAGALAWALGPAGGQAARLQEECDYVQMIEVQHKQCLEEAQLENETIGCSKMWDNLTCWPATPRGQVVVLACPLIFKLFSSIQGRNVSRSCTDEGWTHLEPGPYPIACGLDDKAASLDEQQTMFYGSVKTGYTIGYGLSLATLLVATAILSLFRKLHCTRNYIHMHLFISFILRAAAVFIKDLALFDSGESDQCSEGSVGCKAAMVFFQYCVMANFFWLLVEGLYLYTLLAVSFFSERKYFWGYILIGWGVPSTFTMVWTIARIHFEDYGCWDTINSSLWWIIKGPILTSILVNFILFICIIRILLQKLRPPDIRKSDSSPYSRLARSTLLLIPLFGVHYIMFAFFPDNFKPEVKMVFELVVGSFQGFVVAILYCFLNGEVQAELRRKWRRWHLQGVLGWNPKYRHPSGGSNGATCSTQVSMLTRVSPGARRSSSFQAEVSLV

D(1A) dopamine receptor = D(1A) dopamine receptor (Homo sapiens, UniProt P21728); assay: DRUGMATRIX: Dopamine D1 radioligand binding (ligand: [3H] SCH-23390); assay type: cell membranes, CHO, Membrane; conditions: cho; Not Active = under 50% inhibition at 10 µM
[4] = DRUGMATRIX: Glutamate, AMPA radioligand binding (ligand: [3H] AMPA); assay type: cell membranes, Rattus norvegicus, Wistar, Cerebral cortex, Membrane; conditions: Not Active = under 50% inhibition at 10 µM
Glycine receptor = Glycine receptor (Rattus norvegicus, UniProt P22771+P24524+P07727+P20781); assay type: cell membranes, Wistar, Spinal cord, Membrane; note: in other assays of this panel Not Active means under 50% inhibition at 10 µM
[5] = target: Kappa-type opioid receptor (Homo sapiens, UniProt P41145); assay: DRUGMATRIX: Opiate kappa (OP2, KOP) radioligand binding (ligand: [3H] Diprenorphine); assay type: cell membranes, HEK293, Membrane; conditions: hek293; Not Active = under 50% inhibition at 10 µM
Neutrophil elastase = target: T2, Neutrophil elastase (Homo sapiens, UniProt P08246); assay type: tissue-based;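 note: inhibition of neutrophil elastase enzyme activity, measured with a p-nitroanilide-linked peptide substrate; in other assays of this panel Not Active means under 50% inhibition at 10 µM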
T2 sequence (P08246 whole entry): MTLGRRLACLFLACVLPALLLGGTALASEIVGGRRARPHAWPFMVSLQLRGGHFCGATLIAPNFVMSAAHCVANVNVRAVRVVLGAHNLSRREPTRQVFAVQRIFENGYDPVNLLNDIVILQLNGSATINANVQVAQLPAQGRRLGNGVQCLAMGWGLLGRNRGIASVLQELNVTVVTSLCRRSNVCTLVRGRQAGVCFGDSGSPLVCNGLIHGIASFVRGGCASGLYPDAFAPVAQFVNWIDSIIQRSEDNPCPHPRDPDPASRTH

[6] = target: Mitogen-activated protein kinase 14 (Homo sapiens, UniProt Q16539); design: species or system Escherichia coli
[7] = target: Receptor tyrosine-protein kinase erbB-2 (Homo sapiens, UniProt P04626); assay: biochemical; assay type: cell-based, Insect cells; conditions: insect cells
Cytochrome P450 2A6 = target: T3, Cytochrome P450 2A6 (Homo sapiens, UniProt P11509); conditions: bti-tn-5b1-4; note: in other assays of this panel Not Active means under 50% inhibition at 10 µM
T3 sequence (P11509 whole entry): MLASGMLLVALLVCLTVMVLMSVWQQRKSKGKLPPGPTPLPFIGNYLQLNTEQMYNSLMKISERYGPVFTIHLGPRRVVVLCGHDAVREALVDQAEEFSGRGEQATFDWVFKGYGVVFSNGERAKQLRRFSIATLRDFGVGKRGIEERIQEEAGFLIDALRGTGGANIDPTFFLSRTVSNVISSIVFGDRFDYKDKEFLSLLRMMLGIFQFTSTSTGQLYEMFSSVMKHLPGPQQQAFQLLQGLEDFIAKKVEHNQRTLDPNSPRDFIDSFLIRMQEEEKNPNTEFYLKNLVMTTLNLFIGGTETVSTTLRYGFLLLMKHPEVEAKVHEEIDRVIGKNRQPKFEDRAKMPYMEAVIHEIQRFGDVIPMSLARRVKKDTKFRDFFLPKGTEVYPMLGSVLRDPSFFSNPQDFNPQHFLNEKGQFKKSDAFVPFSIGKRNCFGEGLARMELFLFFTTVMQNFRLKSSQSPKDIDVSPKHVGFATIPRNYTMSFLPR

Estrogen receptor = target: T4, Estrogen receptor (Homo sapiens, UniProt P03372); conditions: sf9; note: in other assays of this panel Not Active means under 50% inhibition at 10 µM
T4 sequence (P03372 whole entry): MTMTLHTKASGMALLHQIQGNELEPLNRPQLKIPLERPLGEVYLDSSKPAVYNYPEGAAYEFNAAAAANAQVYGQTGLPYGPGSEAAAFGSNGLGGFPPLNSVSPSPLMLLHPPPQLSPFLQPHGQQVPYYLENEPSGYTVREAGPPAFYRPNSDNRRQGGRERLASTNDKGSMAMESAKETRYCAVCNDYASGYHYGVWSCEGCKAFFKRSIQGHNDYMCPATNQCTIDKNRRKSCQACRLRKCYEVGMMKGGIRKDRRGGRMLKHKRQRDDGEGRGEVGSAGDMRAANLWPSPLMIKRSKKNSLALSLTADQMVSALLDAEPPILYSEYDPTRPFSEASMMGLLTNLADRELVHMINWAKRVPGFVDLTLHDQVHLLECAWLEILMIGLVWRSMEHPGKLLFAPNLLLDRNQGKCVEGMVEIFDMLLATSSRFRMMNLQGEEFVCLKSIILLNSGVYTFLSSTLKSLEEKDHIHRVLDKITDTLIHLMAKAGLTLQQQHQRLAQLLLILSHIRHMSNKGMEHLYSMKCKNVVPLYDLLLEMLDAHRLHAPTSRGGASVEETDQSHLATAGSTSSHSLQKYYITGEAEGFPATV

Sequence of D(1A) dopamine receptor (P21728 whole entry): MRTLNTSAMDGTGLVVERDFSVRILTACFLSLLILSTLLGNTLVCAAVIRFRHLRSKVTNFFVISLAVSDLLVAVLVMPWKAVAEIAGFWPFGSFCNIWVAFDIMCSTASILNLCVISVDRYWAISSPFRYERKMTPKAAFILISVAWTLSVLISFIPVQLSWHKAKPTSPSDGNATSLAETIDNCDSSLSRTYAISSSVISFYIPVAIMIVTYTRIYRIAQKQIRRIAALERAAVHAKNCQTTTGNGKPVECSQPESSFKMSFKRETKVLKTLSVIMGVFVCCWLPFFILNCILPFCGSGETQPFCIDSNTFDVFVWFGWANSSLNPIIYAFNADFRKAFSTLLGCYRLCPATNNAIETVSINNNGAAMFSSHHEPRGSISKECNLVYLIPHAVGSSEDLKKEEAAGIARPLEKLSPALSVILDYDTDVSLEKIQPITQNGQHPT
Sequence of Kappa-type opioid receptor (P41145 whole entry): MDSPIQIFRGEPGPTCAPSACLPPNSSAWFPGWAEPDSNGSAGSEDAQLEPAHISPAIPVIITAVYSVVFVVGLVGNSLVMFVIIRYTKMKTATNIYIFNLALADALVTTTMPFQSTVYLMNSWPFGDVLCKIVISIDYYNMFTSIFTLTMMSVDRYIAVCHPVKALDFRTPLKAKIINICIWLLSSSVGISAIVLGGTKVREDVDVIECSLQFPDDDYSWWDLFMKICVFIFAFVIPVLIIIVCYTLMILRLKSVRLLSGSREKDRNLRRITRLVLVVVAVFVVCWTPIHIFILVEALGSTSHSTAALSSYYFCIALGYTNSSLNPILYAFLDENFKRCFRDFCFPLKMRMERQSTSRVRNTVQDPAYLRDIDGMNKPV
Sequence of Receptor tyrosine-protein kinase erbB-2 (P04626 whole entry): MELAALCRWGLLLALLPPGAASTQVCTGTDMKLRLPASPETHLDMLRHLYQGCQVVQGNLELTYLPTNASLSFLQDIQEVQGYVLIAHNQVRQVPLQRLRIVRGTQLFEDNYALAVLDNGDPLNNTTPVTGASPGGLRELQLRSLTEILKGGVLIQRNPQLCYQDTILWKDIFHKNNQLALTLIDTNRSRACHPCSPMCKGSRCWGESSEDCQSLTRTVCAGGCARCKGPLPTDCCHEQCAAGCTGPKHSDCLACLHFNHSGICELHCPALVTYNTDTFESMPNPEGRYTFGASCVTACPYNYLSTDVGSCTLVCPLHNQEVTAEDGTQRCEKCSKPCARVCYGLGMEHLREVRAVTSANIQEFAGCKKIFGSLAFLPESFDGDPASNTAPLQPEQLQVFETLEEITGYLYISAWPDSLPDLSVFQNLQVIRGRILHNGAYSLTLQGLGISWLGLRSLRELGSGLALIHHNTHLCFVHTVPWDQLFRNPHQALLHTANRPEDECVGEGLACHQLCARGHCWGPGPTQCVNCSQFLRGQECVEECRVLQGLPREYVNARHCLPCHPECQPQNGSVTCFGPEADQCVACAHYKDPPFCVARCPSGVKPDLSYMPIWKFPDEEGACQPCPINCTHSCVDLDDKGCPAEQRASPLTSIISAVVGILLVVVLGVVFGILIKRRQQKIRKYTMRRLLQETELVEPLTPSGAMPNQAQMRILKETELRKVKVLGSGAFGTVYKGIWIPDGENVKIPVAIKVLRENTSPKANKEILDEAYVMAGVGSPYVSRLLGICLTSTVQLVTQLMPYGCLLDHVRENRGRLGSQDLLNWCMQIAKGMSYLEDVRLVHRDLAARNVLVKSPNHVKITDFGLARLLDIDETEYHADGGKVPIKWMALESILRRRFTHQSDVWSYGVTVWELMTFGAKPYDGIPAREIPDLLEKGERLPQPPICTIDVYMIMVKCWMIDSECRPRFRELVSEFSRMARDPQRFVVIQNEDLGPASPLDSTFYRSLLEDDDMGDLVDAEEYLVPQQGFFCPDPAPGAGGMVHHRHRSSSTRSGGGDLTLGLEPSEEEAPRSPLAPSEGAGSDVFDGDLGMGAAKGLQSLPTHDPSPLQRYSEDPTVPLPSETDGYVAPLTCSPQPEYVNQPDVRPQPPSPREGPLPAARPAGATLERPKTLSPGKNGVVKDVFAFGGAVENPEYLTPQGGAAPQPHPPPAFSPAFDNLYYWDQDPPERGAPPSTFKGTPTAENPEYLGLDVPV
Sequence of Mitogen-activated protein kinase 14 (Q16539 whole entry): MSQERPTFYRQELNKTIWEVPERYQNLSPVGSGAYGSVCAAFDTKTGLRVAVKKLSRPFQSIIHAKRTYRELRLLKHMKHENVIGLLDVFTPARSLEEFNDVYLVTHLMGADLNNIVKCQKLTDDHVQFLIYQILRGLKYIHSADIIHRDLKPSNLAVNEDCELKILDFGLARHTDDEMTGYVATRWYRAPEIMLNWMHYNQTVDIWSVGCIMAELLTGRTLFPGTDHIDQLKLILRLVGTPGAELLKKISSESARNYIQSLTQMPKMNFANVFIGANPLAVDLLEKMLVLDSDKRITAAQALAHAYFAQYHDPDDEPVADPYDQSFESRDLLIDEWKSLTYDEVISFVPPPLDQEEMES
Sequence of Vascular endothelial growth factor receptor 1 (P17948 whole entry): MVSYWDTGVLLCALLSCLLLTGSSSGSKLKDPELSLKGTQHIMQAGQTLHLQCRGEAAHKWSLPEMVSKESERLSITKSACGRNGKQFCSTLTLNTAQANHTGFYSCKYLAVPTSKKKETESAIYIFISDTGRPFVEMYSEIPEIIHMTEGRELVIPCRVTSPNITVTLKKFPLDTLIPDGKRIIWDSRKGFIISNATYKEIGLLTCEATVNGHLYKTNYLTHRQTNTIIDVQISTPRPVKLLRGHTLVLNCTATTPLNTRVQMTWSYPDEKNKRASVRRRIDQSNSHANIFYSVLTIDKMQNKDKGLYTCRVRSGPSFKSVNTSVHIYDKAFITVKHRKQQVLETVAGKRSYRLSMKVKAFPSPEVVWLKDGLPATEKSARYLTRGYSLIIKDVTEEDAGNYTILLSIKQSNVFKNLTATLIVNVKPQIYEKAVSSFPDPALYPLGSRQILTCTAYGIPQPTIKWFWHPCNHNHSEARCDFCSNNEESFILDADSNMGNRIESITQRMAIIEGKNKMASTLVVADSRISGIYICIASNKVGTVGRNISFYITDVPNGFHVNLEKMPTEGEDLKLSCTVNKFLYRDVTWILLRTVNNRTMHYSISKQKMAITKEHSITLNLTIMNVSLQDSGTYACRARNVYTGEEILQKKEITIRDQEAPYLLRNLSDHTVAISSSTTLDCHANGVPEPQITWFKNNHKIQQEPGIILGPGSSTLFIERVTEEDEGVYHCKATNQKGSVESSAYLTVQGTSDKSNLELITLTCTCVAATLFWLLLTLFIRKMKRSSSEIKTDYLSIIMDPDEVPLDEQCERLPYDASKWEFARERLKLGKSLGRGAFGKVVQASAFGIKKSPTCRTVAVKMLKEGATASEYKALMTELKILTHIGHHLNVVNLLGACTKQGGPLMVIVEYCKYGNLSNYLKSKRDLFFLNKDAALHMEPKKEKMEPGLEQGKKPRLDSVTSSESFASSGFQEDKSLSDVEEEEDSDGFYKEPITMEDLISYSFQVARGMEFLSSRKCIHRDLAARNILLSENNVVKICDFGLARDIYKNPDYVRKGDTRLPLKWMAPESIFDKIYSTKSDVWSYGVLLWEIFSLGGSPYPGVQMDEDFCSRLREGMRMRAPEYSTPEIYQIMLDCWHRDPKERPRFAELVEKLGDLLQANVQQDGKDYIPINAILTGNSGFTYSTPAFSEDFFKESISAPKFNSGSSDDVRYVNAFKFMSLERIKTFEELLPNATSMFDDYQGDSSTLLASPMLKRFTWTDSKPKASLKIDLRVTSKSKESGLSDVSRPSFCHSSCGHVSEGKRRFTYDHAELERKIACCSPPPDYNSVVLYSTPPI

O=C(O)c1cn(C2CC2)c2cc(N3CCNCC3)c(F)cc2c1=O [CIPROFLOXACIN]
Not Active: IC50 [1] | Ki [1] | IC50 [2] | IC50 [3] | IC50 (D(1A) dopamine receptor) | IC50 [4] | Ki [4] | IC50 (Glycine receptor) | IC50 [5] | IC50 (Neutrophil elastase) | IC50 [6] | IC50 [7] | IC50 (Cytochrome P450 2A6) | Ki (Cytochrome P450 2A6) | IC50 (Estrogen receptor)

CN(C)CCCC1(c2ccc(F)cc2)OCc2cc(C#N)ccc21 (stereo not given) [CITALOPRAM]
Not Active: IC50 [1] | Ki [1] | IC50 [2] | IC50 [3] | IC50 (D(1A) dopamine receptor) | IC50 [4] | Ki [4] | IC50 (Glycine receptor) | IC50 [5] | IC50 (Neutrophil elastase) | IC50 [6] | IC50 [7] | IC50 (Cytochrome P450 2A6) | Ki (Cytochrome P450 2A6) | IC50 (Estrogen receptor)

COC(=O)[C@H](c1ccccc1Cl)N1CCc2sccc2C1 [CLOPIDOGREL]
Not Active: IC50 [1] | Ki [1] | IC50 [2] | IC50 [3] | IC50 (D(1A) dopamine receptor) | IC50 [4] | Ki [4] | IC50 (Glycine receptor) | IC50 [5] | IC50 (Neutrophil elastase) | IC50 [6] | IC50 [7] | IC50 (Cytochrome P450 2A6) | Ki (Cytochrome P450 2A6) | IC50 (Estrogen receptor)

C[C@]12CCC(=O)C=C1CC[C@@H]1[C@@H]2C(=O)C[C@@]2(C)[C@H]1CC[C@]2(O)C(=O)CO [CORTISONE]
Not Active: IC50 [1] | Ki [1] | IC50 [2] | IC50 [3] | IC50 (D(1A) dopamine receptor) | IC50 [4] | Ki [4] | IC50 (Glycine receptor) | IC50 [5] | IC50 (Neutrophil elastase) | IC50 [6] | IC50 [7] | IC50 (Cytochrome P450 2A6) | Ki (Cytochrome P450 2A6) | IC50 (Estrogen receptor)

CC1=Nc2ccc(Cl)cc2S(=O)(=O)N1 [DIAZOXIDE]
Not Active: IC50 [1] | Ki [1] | IC50 [2] | IC50 [3] | IC50 (D(1A) dopamine receptor) | IC50 [4] | Ki [4] | IC50 (Glycine receptor) | IC50 [5] | IC50 (Neutrophil elastase) | IC50 [6] | IC50 [7] | IC50 (Cytochrome P450 2A6) | Ki (Cytochrome P450 2A6) | IC50 (Estrogen receptor)

CCc1cccc2c3c([nH]c12)C(CC)(CC(=O)O)OCC3 (stereo not given) [ETODOLAC]
Not Active: IC50 [1] | Ki [1] | IC50 [2] | IC50 [3] | IC50 (D(1A) dopamine receptor) | IC50 [4] | Ki [4] | IC50 (Glycine receptor) | IC50 [5] | IC50 (Neutrophil elastase) | IC50 [6] | IC50 [7] | IC50 (Cytochrome P450 2A6) | Ki (Cytochrome P450 2A6) | IC50 (Estrogen receptor)

Cc1c(-c2ccccc2)oc2c(C(=O)OCCN3CCCCC3)cccc2c1=O [FLAVOXATE]
Not Active: IC50 [1] | Ki [1] | IC50 [2] | IC50 [3] | IC50 (D(1A) dopamine receptor) | IC50 [4] | Ki [4] | IC50 (Glycine receptor) | IC50 [5] | IC50 (Neutrophil elastase) | IC50 [6] | IC50 [7] | IC50 (Cytochrome P450 2A6) | Ki (Cytochrome P450 2A6) | IC50 (Estrogen receptor)

Nc1nc(=O)[nH]cc1F [FLUCYTOSINE]
Not Active: IC50 [1] | Ki [1] | IC50 [2] | IC50 [3] | IC50 (D(1A) dopamine receptor) | IC50 [4] | Ki [4] | IC50 (Glycine receptor) | IC50 [5] | IC50 (Neutrophil elastase) | IC50 [6] | IC50 [7] | IC50 (Cytochrome P450 2A6) | Ki (Cytochrome P450 2A6) | IC50 (Estrogen receptor)

O=C1OC2(c3ccc(O)cc3Oc3cc(O)ccc32)c2ccccc21 [FLUORESCEIN]
Not Active: IC50 [1] | Ki [1] | IC50 [2] | IC50 [3] | IC50 (D(1A) dopamine receptor) | IC50 [4] | Ki [4] | IC50 (Glycine receptor) | IC50 [5] | IC50 (Neutrophil elastase) | IC50 [6] | IC50 [7] | IC50 (Cytochrome P450 2A6) | Ki (Cytochrome P450 2A6) | IC50 (Estrogen receptor)

CC(=O)[C@@]1(O)CC[C@H]2[C@@H]3C[C@H](C)C4=CC(=O)C=C[C@]4(C)[C@@]3(F)[C@@H](O)C[C@@]21C [FLUOROMETHOLONE]
Not Active: IC50 [1] | Ki [1] | IC50 [2] | IC50 [3] | IC50 (D(1A) dopamine receptor) | IC50 [4] | Ki [4] | IC50 (Glycine receptor) | IC50 [5] | IC50 (Neutrophil elastase) | IC50 [6] | IC50 [7] | IC50 (Cytochrome P450 2A6) | Ki (Cytochrome P450 2A6) | IC50 (Estrogen receptor)

O=c1[nH]cc(F)c(=O)[nH]1 [FLUOROURACIL]
Not Active: IC50 [1] | Ki [1] | IC50 [2] | IC50 [3] | IC50 (D(1A) dopamine receptor) | IC50 [4] | Ki [4] | IC50 (Glycine receptor) | IC50 [5] | IC50 (Neutrophil elastase) | IC50 [6] | IC50 [7] | IC50 (Cytochrome P450 2A6) | Ki (Cytochrome P450 2A6) | IC50 (Estrogen receptor)
